Test results from ChEMBL document CHEMBL1201862, “PubChem BioAssay data set” (2004).
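Step 1: Grow cells in 96-well plates. Step 2: Expose to compound for 48 hours at 5 concentrations. Step 3: Interpolate endpoints linearly; if unreached, use highest concentration. The concentration for 50% growth inhibition is given as GI50.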 The source made the active and inactive calls. No stated cut-off is given here; in the data, active = GI50 up to about 1.1 µM and inactive = higher.

Tests used:
Assay in all cases: DTP human tumour cell line panel, 48 h
A549 = tested on: A549
ACHN = tested on: ACHN
DLD-1 = tested on: DLD-1
EKVX = tested on: EKVX
HCC 2998 = tested on: HCC 2998
HCT-116 = tested on: HCT-116
MOLT-4 = tested on: MOLT-4
NCI-H23 = tested on: NCI-H23
NCI-H522 = tested on: NCI-H522
OVCAR-5 = tested on: OVCAR-5
SK-MEL-28 = tested on: SK-MEL-28
SN12C = tested on: SN12C
U-251 = tested on: U-251
UACC-257 = tested on: UACC-257
BT-549 = tested on: BT-549
MCF7 = tested on: MCF7
MDA-MB-231 = tested on: MDA-MB-231
MDA-N = tested on: MDA-N
NCI/ADR-RES = tested on: NCI/ADR-RES
T47D = tested on: T47D

| Compound | GI50 (A549) | GI50 (ACHN) | GI50 (DLD-1) | GI50 (EKVX) | GI50 (HCC 2998) | GI50 (HCT-116) | GI50 (MOLT-4) | GI50 (NCI-H23) | GI50 (NCI-H522) | GI50 (OVCAR-5) | GI50 (SK-MEL-28) | GI50 (SN12C) | GI50 (U-251) | GI50 (UACC-257) | GI50 (BT-549) | GI50 (MCF7) | GI50 (MDA-MB-231) | GI50 (MDA-N) | GI50 (NCI/ADR-RES) | GI50 (T47D) |
| --- | --- | --- | --- | --- | --- | --- | --- | --- | --- | --- | --- | --- | --- | --- | --- | --- | --- | --- | --- | --- |
| O=C1C(=Cc2cccs2)C(=O)N(CCc2ccccc2)S(=O)(=O)N1CCc1ccccc1 | > 50 µM (inactive) | 22.6 µM (inactive) | > 50 µM (inactive) | > 50 µM (inactive) | > 50 µM (inactive) | 11.7 µM (inactive) | > 50 µM (inactive) | > 50 µM (inactive) | 15.5 µM (inactive) | > 50 µM (inactive) | > 50 µM (inactive) | > 50 µM (inactive) | 12.9 µM (inactive) | > 50 µM (inactive) | – | – | – | – | – | – |
| Cc1cccc(/N=C/c2ccc(N(CCC#N)S(=O)(=O)c3ccccc3)cc2C)c1 | > 100 µM (inactive) | 88.3 µM (inactive) | > 100 µM (inactive) | > 100 µM (inactive) | > 100 µM (inactive) | > 100 µM (inactive) | 29.2 µM (inactive) | > 100 µM (inactive) | > 100 µM (inactive) | > 100 µM (inactive) | > 100 µM (inactive) | > 100 µM (inactive) | > 100 µM (inactive) | > 100 µM (inactive) | – | – | – | – | – | – |
| C[C@]12CC[C@H](OCCC#N)CC1=CC[C@@H]1C2CC[C@]2(C)/C(=N/OCCC#N)CCC12 (some centres undefined) | 31.3 µM (inactive) | 16.7 µM (inactive) | > 100 µM (inactive) | > 94.8 µM (inactive) | > 100 µM (inactive) | > 21 µM (inactive) | > 100 µM (inactive) | 10.8 µM (inactive) | 20.9 µM (inactive) | > 100 µM (inactive) | > 74.6 µM (inactive) | > 100 µM (inactive) | 24.8 µM (inactive) | 6.62 µM (inactive) | – | – | – | – | – | – |
| CN(C)CCNC(=O)c1cccc2cc3ccc4ccccc4c3nc12 | 0.0226 µM (active) | 0.0276 µM (active) | 0.0561 µM (active) | 0.145 µM (active) | 0.104 µM (active) | 0.0294 µM (active) | 0.0156 µM (active) | 0.0851 µM (active) | 0.122 µM (active) | 0.214 µM (active) | 0.198 µM (active) | 0.0531 µM (active) | 0.0755 µM (active) | 0.177 µM (active) | – | – | – | – | – | – |
| CC1(C)C(O)C[C@@H](O)[C@@]2(C)C1CC[C@]1(C)C2C[C@@H](O)[C@@H]2C([C@@]3(C)CC[C@@H](C(C)(C)O)O3)CCC21C (some centres undefined) | 18.9 µM (inactive) | 19.1 µM (inactive) | 16.5 µM (inactive) | 24.9 µM (inactive) | 17.5 µM (inactive) | 17 µM (inactive) | 22 µM (inactive) | 17.4 µM (inactive) | 14.6 µM (inactive) | 16.1 µM (inactive) | 13.8 µM (inactive) | 13.8 µM (inactive) | 12.9 µM (inactive) | 21 µM (inactive) | – | – | – | – | – | – |
| Nc1ccn([C@@H]2C=C(CO)[C@@H](O)[C@H]2O)c(=O)n1 | 0.0592 µM (active) | 0.0559 µM (active) | 0.151 µM (active) | 0.562 µM (active) | 1.29 µM (inactive) | 0.05 µM (active) | 0.0501 µM (active) | 0.169 µM (active) | 0.6 µM (active) | 1.48 µM (inactive) | 0.298 µM (active) | 0.0546 µM (active) | 0.321 µM (active) | – | 2.06 µM (inactive) | 0.05 µM (active) | 0.467 µM (active) | 0.0353 µM (active) | 0.092 µM (active) | 0.483 µM (active) |
| COc1ccc(-c2oc3cc(O)c(OC)c(O)c3c(=O)c2O)cc1 [BETULETOL] | 3.33 µM (inactive) | 2.77 µM (inactive) | 13.4 µM (inactive) | 18.9 µM (inactive) | 19.3 µM (inactive) | 8.75 µM (inactive) | 1.85 µM (inactive) | 5.62 µM (inactive) | 10.2 µM (inactive) | 26.9 µM (inactive) | 20.2 µM (inactive) | 5.6 µM (inactive) | 4.47 µM (inactive) | 54 µM (inactive) | 8.36 µM (inactive) | 4.44 µM (inactive) | 12.9 µM (inactive) | 13.7 µM (inactive) | 6.73 µM (inactive) | 9.75 µM (inactive) |
